Where “and” joins values, the source holds several entries; their conditions need not be identical. Equal entries are not always repeated.
Settings: Liquid, Falling or rolling sphere viscometry

O [water]
Settings	viscosity
255.65 K, 177500 kPa	2.945 mPa·s
255.65 K, 190300 kPa	2.955 mPa·s
255.65 K, 196700 kPa	2.959 mPa·s
255.65 K, 201800 kPa	2.964 mPa·s
255.65 K, 231800 kPa	3.003 mPa·s
255.65 K, 257800 kPa	3.056 mPa·s
255.65 K, 292300 kPa	3.135 mPa·s
255.65 K, 321100 kPa	3.217 mPa·s
258.15 K, 159300 kPa	2.678 mPa·s
258.15 K, 188400 kPa	2.69 mPa·s
258.15 K, 205200 kPa	2.708 mPa·s
258.15 K, 209200 kPa	2.71 mPa·s
258.15 K, 239800 kPa	2.754 mPa·s
258.15 K, 282600 kPa	2.834 mPa·s
258.15 K, 309000 kPa	2.898 mPa·s
258.15 K, 323500 kPa	2.934 mPa·s
258.15 K, 333200 kPa	2.957 mPa·s
258.15 K, 354100 kPa	3.019 mPa·s
258.15 K, 361000 kPa	3.033 mPa·s
263.15 K, 112000 kPa	2.258 mPa·s
263.15 K, 112100 kPa	2.258 mPa·s
263.15 K, 128600 kPa	2.247 mPa·s
263.15 K, 150800 kPa	2.244 mPa·s
263.15 K, 180700 kPa	2.256 mPa·s
263.15 K, 209900 kPa	2.281 mPa·s
263.15 K, 240100 kPa	2.315 mPa·s
263.15 K, 270500 kPa	2.357 mPa·s
263.15 K, 302000 kPa	2.415 mPa·s
263.15 K, 335400 kPa	2.481 mPa·s
263.15 K, 386400 kPa	2.605 mPa·s
268.15 K, 61100 kPa	1.969 mPa·s
268.15 K, 80800 kPa	1.942 mPa·s
268.15 K, 98000 kPa	1.927 mPa·s
268.15 K, 100200 kPa	1.926 mPa·s
268.15 K, 124200 kPa	1.914 mPa·s
268.15 K, 151100 kPa	1.913 mPa·s
268.15 K, 177500 kPa	1.924 mPa·s
268.15 K, 213300 kPa	1.949 mPa·s
268.15 K, 245400 kPa	1.982 mPa·s
268.15 K, 295300 kPa	2.047 mPa·s
268.15 K, 350800 kPa	2.138 mPa·s
268.15 K, 376700 kPa	2.19 mPa·s
268.15 K, 387900 kPa	2.212 mPa·s
273.15 K, 100 kPa	1.799 mPa·s and 1.802 mPa·s
273.15 K, 30700 kPa	1.722 mPa·s
273.15 K, 60400 kPa	1.678 mPa·s
273.15 K, 90700 kPa	1.653 mPa·s
273.15 K, 120600 kPa	1.644 mPa·s
273.15 K, 150300 kPa	1.649 mPa·s
273.15 K, 180000 kPa	1.659 mPa·s
273.15 K, 209600 kPa	1.678 mPa·s
273.15 K, 240300 kPa	1.704 mPa·s
273.15 K, 270400 kPa	1.735 mPa·s
273.15 K, 300400 kPa	1.771 mPa·s
273.15 K, 330300 kPa	1.81 mPa·s
273.15 K, 359500 kPa	1.852 mPa·s
273.15 K, 386700 kPa	1.893 mPa·s
278.15 K, 100 kPa	1.528 mPa·s
278.15 K, 600 kPa	1.527 mPa·s
278.15 K, 30700 kPa	1.481 mPa·s
278.15 K, 60700 kPa	1.454 mPa·s
278.15 K, 90500 kPa	1.44 mPa·s
278.15 K, 120300 kPa	1.439 mPa·s
278.15 K, 150800 kPa	1.444 mPa·s
278.15 K, 180700 kPa	1.456 mPa·s
278.15 K, 210700 kPa	1.476 mPa·s
278.15 K, 240400 kPa	1.498 mPa·s
278.15 K, 270400 kPa	1.522 mPa·s
278.15 K, 300600 kPa	1.555 mPa·s
278.15 K, 330300 kPa	1.591 mPa·s
278.15 K, 360000 kPa	1.631 mPa·s
278.15 K, 389000 kPa	1.672 mPa·s
283.15 K, 100 kPa	1.313 mPa·s and 1.31 mPa·s
283.15 K, 500 kPa	1.31 mPa·s
283.15 K, 30700 kPa	1.28 mPa·s
283.15 K, 60700 kPa	1.264 mPa·s
283.15 K, 90700 kPa	1.257 mPa·s
283.15 K, 120800 kPa	1.257 mPa·s
283.15 K, 150800 kPa	1.263 mPa·s
283.15 K, 180800 kPa	1.275 mPa·s
283.15 K, 210200 kPa	1.293 mPa·s
283.15 K, 240600 kPa	1.314 mPa·s
283.15 K, 270700 kPa	1.337 mPa·s
283.15 K, 300200 kPa	1.362 mPa·s
283.15 K, 330000 kPa	1.39 mPa·s
283.15 K, 359200 kPa	1.42 mPa·s
283.15 K, 385200 kPa	1.45 mPa·s
298.15 K, 100 kPa	0.892 mPa·s and 0.893 mPa·s
298.15 K, 31000 kPa	0.888 mPa·s
298.15 K, 61000 kPa	0.888 mPa·s
298.15 K, 90900 kPa	0.891 mPa·s
298.15 K, 120700 kPa	0.898 mPa·s
298.15 K, 150600 kPa	0.907 mPa·s
298.15 K, 180600 kPa	0.919 mPa·s
298.15 K, 210600 kPa	0.933 mPa·s
298.15 K, 240600 kPa	0.948 mPa·s
298.15 K, 270100 kPa	0.965 mPa·s
298.15 K, 299700 kPa	0.983 mPa·s
298.15 K, 329200 kPa	1.002 mPa·s
298.15 K, 358500 kPa	1.022 mPa·s
298.15 K, 384300 kPa	1.042 mPa·s

Reference: the NIST ThermoML archive (doi:10.1021/je049918m)
